Results published in patent US20190105344A1, “ORAL MOLECULAR IODINE COMPOSITION AND METHOD” (Iogen, LLC, priority 2016, published 2019).
Where two headings read alike, the source gives them in different places. Each block holds one compound with its values, some of them ahead of it.

Key:
[1] = male rats, subchronic administration, cited from earlier work
[2] = system: N-methyl-N-nitrosourea-induced mammary carcinogenesis; conditions: in vivo; cited from earlier work
[3] = Subchronic administration to male rats, thyroid weight; assay type: in vivo; conditions: mammals; iodide vs molecular iodine
[4] = Iodination of arachidonic acid by molecular iodine (thiosulfate titration, Example 1); assay type: physicochemical; conditions: 0.01N sodium thiosulfate titration
Experimental: A stock solution of 10 mg/ml arachidonic acid in ethanol was prepared. […] A control vial was prepared that had no arachidonic acid.
An iodate/iodide solution was prepared separately by adding NaIO3 (Sigma-Aldrich, St. Louis, Mo.; part number S4007-500G) and NaI (Sigma-Aldrich, St. Louis, Mo.; part number […]) to final concentrations of 3.16 and 20.55 mM, respectively, in 0.64M sodium carbonate in water.
Vials were then titrated with 0.01N sodium thiosulfate solution until the samples went from dark blue to colorless.
Since the oxidation of iodide after acidification is diffusion controlled, the reaction of iodate with iodide is essentially instantaneous and five moles of iodide reacts with each mole of iodate to form 3 moles of molecular iodine.
The ratio of iodide to iodate used in this experiment insured that there was unreacted […] present in the solution after acidification with HCl.

[5] = Iodination of arachidonic acid by molecular iodine with additional iodate (thiosulfate titration, Example 3); assay type: physicochemical
Experimental: A stock solution of 10 mg/ml arachidonic acid in ethanol was prepared. […] A control vial was prepared that had no arachidonic acid. An iodate/iodide solution was prepared separately by adding NaIO3 (Sigma-Aldrich, St. Louis, Mo.; part number […]) and NaI (Sigma-Aldrich, St.

[6] = cited from earlier work
[7] = Experimental: An iodate/iodide solution was prepared separately by adding sodium iodate (Sigma-Aldrich, St. Louis, Mo.; part number S4007-500G) and sodium iodide (Sigma Aldrich, St. Louis, Mo.; part number 383112-100G) to final concentrations of 3.16 and 20.55 mM, respectively, in 0.64M sodium carbonate in water. One mL of the iodate/iodide solution was then added to the vials followed by 100 μl of 0.5% starch indicator.
This additional sodium iodate was added to provide additional oxidant to re-oxidize any iodide that might be formed by the iodination of arachidonic acid.
Two mL of 1N HCl was added and a visual observation of the samples was recorded. Vials were then titrated with 0.01N sodium thiosulfate solution until the samples went from dark blue to colorless.

SMILES: II [molecular iodine]
thyroid weight ([1]; even at 100 mg/kg): did not affect thyroid weight
formation of carcinogen induced tumors [2]: inhibits

concentration affecting thyroid weight, less than for a comparable effect from molecular iodine [3]: 10 fold
SMILES: I [iodide]
thyroid weight ([1]; 10 mg/kg): increased
formation of carcinogen induced tumors [2]: not

Thiosulfate ([4]; 0.3 mg arachidonic acid): 1.75 mL
Thiosulfate ([4]; 1.0 mg arachidonic acid): 1.62 mL
decrease of molecular iodine observed from Sample 3 to Sample 4 ([5]; 1 mg arachidonic acid, additional iodate): 0.50 ∞mol
molecular iodine reacted with ([5]; one mg arachidonic acid, Sample 2 vs Sample 1, unit of the source corrected): 1 µmol
SMILES: CCCCC/C=C\C/C=C\C/C=C\C/C=C\CCCC(=O)O [Arachidonic Acid, (5Z,8Z,11Z,14Z)-5,8,11,14-eicosatetraenoic acid]
systemic inflammation ([6]; bodybuilders, 1500 mg): may reduce systemic inflammation
toxicity or safety risk ([6]; daily oral administration of up to 1500 mg): no toxicity or safety risk
carcinogenicity ([6]; in vivo): not carcinogenic

Thiosulfate ([7]; sample 2: 1 mg sorbic acid, no additional NaIO3): 1.45 mL
Thiosulfate ([7]; sample 4: 1 mg sorbic acid, additional NaIO3 188 ∝g): 1.60 mL
Thiosulfate ([5]; sample 2: 1 mg acid, no additional NaIO3): 1.70 mL
Thiosulfate ([5]; sample 4: 1 mg acid, additional NaIO3 188 ∝g): 2.10 mL
SMILES: C/C=C/C=C/C(=O)O [Sorbic Acid, sorbic acid, reference compound]
